Consider eight compounds from ChEMBL document CHEMBL4002566, “S-substituted 3,5-dinitrophenyl 1,3,4-oxadiazole-2-thiols and tetrazole-5-thiols as highly efficient antitubercular agents” (Eur J Med Chem, 2017).

Format in all cases: functional
Assay [1] concerns Mycobacterium tuberculosis. Put plainly: Antimycobacterial activity against multidrug-resistant Mycobacterium tuberculosis 9449/2007 after 21 days by micromethod. The settings on record: 9449/2007, 504 h.
Assay [2] concerns Mycobacterium tuberculosis. The assay can be described thus: Antimycobacterial activity against multidrug-resistant Mycobacterium tuberculosis 9449/2007 after 14 days by micromethod. The settings on record: 9449/2007, 336 h.
The test system of assay [3] is Mycobacterium tuberculosis. Put plainly: Antimycobacterial activity against multidrug-resistant Mycobacterium tuberculosis 8666/2010 after 14 days by micromethod. To be noted: 8666/2010, 336 h.
Assay [4] has as its system Mycobacterium tuberculosis. Put plainly: Antimycobacterial activity against multidrug-resistant Mycobacterium tuberculosis Praha 131 after 14 days by micromethod. To be noted: Praha 131, 336 h.
Assay [5] relates to Mycobacterium tuberculosis. Put plainly: Antimycobacterial activity against multidrug-resistant Mycobacterium tuberculosis Praha 4 after 14 days by micromethod. To be noted: Praha 4, 336 h.
Assay [6] concerns Mycobacterium tuberculosis. The assay can be described thus: Antimycobacterial activity against multidrug-resistant Mycobacterium tuberculosis Praha 1 after 21 days by micromethod. To be noted: Praha 1, 504 h.
Assay [7] deals with Mycobacterium tuberculosis. Put plainly: Antimycobacterial activity against multidrug-resistant Mycobacterium tuberculosis 8666/2010 after 21 days by micromethod. The settings on record: 8666/2010, 504 h.
The subject of assay [8] is Mycobacterium tuberculosis. Put plainly: Antimycobacterial activity against multidrug-resistant Mycobacterium tuberculosis 234/2005 after 14 days by micromethod. The settings on record: 234/2005, 336 h.
Assay [9] has as its system Mycobacterium tuberculosis. Put plainly: Antimycobacterial activity against multidrug-resistant Mycobacterium tuberculosis 7357/1998 after 21 days by micromethod. The settings on record: 7357/1998, 504 h.
Assay [10] relates to Mycobacterium tuberculosis. The assay can be described thus: Antimycobacterial activity against multidrug-resistant Mycobacterium tuberculosis 7357/1998 after 14 days by micromethod. To be noted: 7357/1998, 336 h.
Assay [11] has as its system Mycobacterium tuberculosis. The assay can be described thus: Antimycobacterial activity against multidrug-resistant Mycobacterium tuberculosis Praha 131 after 21 days by micromethod. To be noted: Praha 131, 504 h.
In assay [12] the test system is Mycobacterium tuberculosis. Put plainly: Antimycobacterial activity against multidrug-resistant Mycobacterium tuberculosis Praha 4 after 21 days by micromethod. To be noted: Praha 4, 504 h.
The subject of assay [13] is Mycobacterium tuberculosis. The assay can be described thus: Antimycobacterial activity against multidrug-resistant Mycobacterium tuberculosis Praha 1 after 14 days by micromethod. To be noted: Praha 1, 336 h.
Assay [14] deals with Mycobacterium tuberculosis. The assay can be described thus: Antimycobacterial activity against multidrug-resistant Mycobacterium tuberculosis 234/2005 after 21 days by micromethod. The settings on record: 234/2005, 504 h.

Values after ≈ are worked out from the molar mass of the structure shown.

As to `O=[N+]([O-])c1cc(-c2nnc(SCc3ccc(Cl)c(Cl)c3)o2)cc(C(F)(F)F)c1`, the MIC – broadly, the lowest concentration found to suppress growth – came to 0.5 µM (≈ 0.225 µg/mL) in assay [1]; 0.5 µM (≈ 0.225 µg/mL) in assay [2]; 0.5 µM (≈ 0.225 µg/mL) in [3]; 0.5 µM (≈ 0.225 µg/mL) in assay [4]; 0.25 µM (≈ 0.113 µg/mL) in assay [5]; 0.5 µM (≈ 0.225 µg/mL) in assay [6]. Further, the MIC in assay [7], in assay [8], in assay [9], in [10], in [11] and in assay [12] was 0.5 µM (≈ 0.225 µg/mL) each time. The MIC in [13] and in [14] was 0.5 µM (≈ 0.225 µg/mL) throughout.
As to `O=[N+]([O-])c1cc(-c2nnc(SCc3ccc(Cl)c(Cl)c3)o2)cc([N+](=O)[O-])c1`, the MIC in assay [1], in [2], in assay [3], in [4], in assay [5] and in [6] was 0.03 µM (≈ 0.0128 µg/mL) each time. The MIC in assay [7], in [8], in assay [9], in assay [10], in assay [11] and in [12] was 0.03 µM (≈ 0.0128 µg/mL) throughout. Moreover, the MIC in [13] and in [14] was 0.03 µM (≈ 0.0128 µg/mL) in each case.
In the case of `NCC[C@H](O)C(=O)N[C@@H]1C[C@H](N)[C@@H](O[C@H]2O[C@H](CN)[C@@H](O)[C@H](O)[C@H]2O)[C@H](O)[C@H]1O[C@H]1O[C@H](CO)[C@@H](O)[C@H](N)[C@H]1O` [AMIKACIN], the MIC is 0.5 µM (≈ 0.293 µg/mL) in assay [2]; 2 µM (≈ 1.17 µg/mL) in assay [3]; greater than 32 µM in assay [4]; 1 µM (≈ 0.586 µg/mL) in assay [5]; 0.5 µM (≈ 0.293 µg/mL) in [8]; 1 µM (≈ 0.586 µg/mL) in [10]. Further, 0.5 µM (≈ 0.293 µg/mL) was the least that counted as inhibitory in assay [13] (MIC).
In the case of `O=[N+]([O-])c1cc(-n2nnnc2SCc2ccc(Cl)c(Cl)c2)cc([N+](=O)[O-])c1`, the MIC came to 0.25 µM (≈ 0.107 µg/mL) in [1]; 0.25 µM (≈ 0.107 µg/mL) in assay [2]; 0.25 µM (≈ 0.107 µg/mL) in [3]; 0.25 µM (≈ 0.107 µg/mL) in [4]; 0.25 µM (≈ 0.107 µg/mL) in [5]; 0.5 µM (≈ 0.214 µg/mL) in [6]. The MIC in assay [7] was 0.25 µM (≈ 0.107 µg/mL); in [8] it was 0.25 µM (≈ 0.107 µg/mL); in [9], 0.5 µM (≈ 0.214 µg/mL); in [10] it was 0.25 µM (≈ 0.107 µg/mL); in [11], 0.5 µM (≈ 0.214 µg/mL); in assay [12], 0.25 µM (≈ 0.107 µg/mL). Besides, the minimum inhibitory concentration (MIC) in assay [13] and in [14] was 0.25 µM (≈ 0.107 µg/mL) throughout.
`O=[N+]([O-])c1cc(-n2nnnc2SCc2ccc(Cl)cc2)cc([N+](=O)[O-])c1`: the MIC in assay [1], in assay [2], in assay [3], in assay [4], in assay [5] and in [6] was 0.5 µM (≈ 0.196 µg/mL) each time. Also, the MIC in [7], in assay [8], in assay [9], in [10], in [11] and in assay [12] was 0.5 µM (≈ 0.196 µg/mL) each time. In addition, the minimum inhibitory concentration (MIC) in assay [13] and in [14] was 0.5 µM (≈ 0.196 µg/mL) throughout.
Turning to `O=[N+]([O-])c1cc(-c2nnc(SCc3ccccc3)o2)cc(C(F)(F)F)c1`, the minimum inhibitory concentration (MIC) in assay [1] amounted to 2 µM (≈ 0.763 µg/mL); in assay [2], 2 µM (≈ 0.763 µg/mL); in [3] it was 1 µM (≈ 0.381 µg/mL); in [4], 1 µM (≈ 0.381 µg/mL); in assay [5] it was 1 µM (≈ 0.381 µg/mL); in assay [6], 1 µM (≈ 0.381 µg/mL). For the same compound, the MIC in [7] came to 2 µM (≈ 0.763 µg/mL); in [8] it was 1 µM (≈ 0.381 µg/mL); in assay [9] it was 2 µM (≈ 0.763 µg/mL); in assay [10], 1 µM (≈ 0.381 µg/mL); in assay [11], 2 µM (≈ 0.763 µg/mL); in [12], 1 µM (≈ 0.381 µg/mL). Moreover, the MIC in assay [13] and in [14] was 1 µM (≈ 0.381 µg/mL) throughout.
Consider `CO[C@H]1/C=C/O[C@@]2(C)Oc3c(C)c(O)c4c(O)c(c(/C=N/N5CCN(C)CC5)c(O)c4c3C2=O)NC(=O)/C(C)=C\C=C\[C@H](C)[C@H](O)[C@@H](C)[C@@H](O)[C@@H](C)[C@H](OC(C)=O)[C@@H]1C` [RIFAMPIN], for which the MIC in assay [2], in assay [3], in assay [4], in [5], in assay [8] and in assay [10] was greater than 8 µM each time. The compound also yielded an MIC in assay [13] greater than 8 µM.
Regarding `CC[C@@H](CO)NCCN[C@@H](CC)CO` [ETHAMBUTOL], the MIC in [2] came to 8 µM (≈ 1.63 µg/mL); in assay [3], 16 µM (≈ 3.27 µg/mL); in [4], 32 µM (≈ 6.54 µg/mL); in assay [5], 16 µM (≈ 3.27 µg/mL); in assay [8], 16 µM (≈ 3.27 µg/mL); in assay [10], 16 µM (≈ 3.27 µg/mL). Besides, inhibition of growth in [13] (MIC) required 32 µM (≈ 6.54 µg/mL).
